Measured values as given in PMC11408123, “Deciphering the SAM- and metal-dependent mechanism of O-methyltransferases in cystargolide and belactosin biosynthesis: A structure–activity relationship study” (The Journal of Biological Chemistry, 2024).

How the values were obtained:
CysG^ΔN16 [1] = target: T1, CysG^ΔN16 (Kitasatospora cystarginea, UniProt A0A1W6R556, R22K); assay: X-ray crystal structure; format: binding; details: methyl donor site
T1 construct: N-terminal truncation lacking the first 16 residues, His6-SUMO tag removed, E. coli BL21(DE3); electron density for residues 17-229

BelI = target: T2, BelI (Streptomyces sp., UniProt A0A1W6R583); assay: HPLC-MS turnover assay, semi-quantitative; format: biochemical; details: 1 mM substrate, 1 mM SAM, 5 μM enzyme, 20 mM Ca2+, 50 mM Tris-HCl, 30 °C, 3 h
T2 construct: full length, codon-optimised gene, N-terminal His6-SUMO tag removed, E. coli BL21(DE3); electron density for residues 17-228

CysG^ΔN16 [2] = target: T3, CysG^ΔN16 (Kitasatospora cystarginea, UniProt A0A1W6R556); assay: X-ray crystal structure, […] Å; format: binding; details: with Ca2+ bound at His122-His123-Asp191; methyl donor site
T3 construct: N-terminal truncation lacking the first 16 residues, His6-SUMO tag removed, E. coli BL21(DE3); electron density for residues 17-229

CysG^ΔN16 [3] = target: T3, CysG^ΔN16; assay: HPLC-MS turnover assay, semi-quantitative; format: biochemical; details: 1 mM substrate, 1 mM SAM, 5 μM enzyme, 20 mM divalent metal ion, 50 mM Tris-HCl, 30 °C, 3 h
CysG^fl = target: T4, CysG^fl (Kitasatospora cystarginea, UniProt A0A1W6R556); assay: HPLC-MS turnover assay, semi-quantitative; format: biochemical; details: 1 mM substrate, 1 mM SAM, 5 μM enzyme, 20 mM Ca2+, 50 mM Tris-HCl, 30 °C, 3 h
T4 construct: full length, codon-optimised gene, N-terminal His6-SUMO tag removed, E. coli BL21(DE3)

## C[S+](CC[C@H](N)C(=O)O)C[C@H]1O[C@@H](n2cnc3c(N)ncnc32)[C@H](O)[C@@H]1O (some centres unmarked) [SAM]
CysG^ΔN16 [1]
  X-ray crystal structure: CysG^ΔN16-R22K variant (PDB ID: 9FCY) maintains SAM coordination

## CCC(C)C(C(=O)O)C(O)C(=O)O (centres unmarked) [3SBM]
BelI
  HPLC-MS turnover assay, semi-quantitative: The assay was started by the addition of 3IPM for CysG and 3SBM for BelI

## Nc1ncnc2c1ncn2[C@@H]1O[C@H](CSCC[C@H](N)C(=O)O)[C@@H](O)[C@H]1O [SAH]
CysG^ΔN16 [2]
  X-ray crystal structure, 1.5 Å: crystal structures of CysG^ΔN16 in complex with S-adenosylhomocysteine (SAH)

## CC(C)[C@H](C(=O)O)[C@@H](O)C(=O)O [3IPM]
CysG^ΔN16 [3]
  HPLC-MS turnover assay, semi-quantitative: N-terminally truncated CysG^ΔN16 variant was active with metal ions available
CysG^fl
  HPLC-MS turnover assay, semi-quantitative: The assay was started by the addition of 3IPM for CysG and 3SBM for BelI
